In ChEMBL document CHEMBL1143290, “In vitro anti-inflammatory activity of lignans isolated from Magnolia fargesii” (Bioorg Med Chem Lett, 2009):

Tests used:
BV-2 = experiment: Inhibition of NO production in LPS-stimulated mouse BV2 cells assessed as nitrite accumulation after 20 hrs by Griess reagent method; assay type: functional, cell-based; details: BV-2, 20 h
[1] = Inhibition of NOS

Compound	IC50 (BV-2) [µM]	IC50 [1] [µM]
COc1cc([C@H]2OC[C@H]3[C@@H]2CO[C@@H]3c2cc(OC)c(OC)c(OC)c2)cc(OC)c1OC	28.6	–
COc1ccc([C@H]2OC[C@H]3[C@@H]2CO[C@@H]3c2cc(OC)c(OC)c(OC)c2)cc1OC	20.5	–
COc1ccc([C@H]2OC[C@H]3[C@@H]2CO[C@@H]3c2ccc(OC)c(OC)c2)cc1OC [(+)-EUDESMIN]	30	–
CNC(=N)NCCC[C@H](N)C(=O)O [TILARGININE]	–	19.2
